Measurements taken from ChEMBL document CHEMBL1144267, “New conformationally locked bicyclic N,O-nucleoside analogues of antiviral drugs” (2005).

Key:
Assay type in all cases: functional
Human alphaherpesvirus 1 [1] = assay: Antiviral efficacy in Vero cells infected with HSV-1 at concentration of 100 uM
Human alphaherpesvirus 1 [2] = assay: Antiviral efficacy in Vero cells infected with HSV-1 at concentration of 200 uM
Human alphaherpesvirus 1 [3] = assay: Antiviral efficacy in Vero cells infected with HSV-1 at concentration of 400 uM
Human alphaherpesvirus 1 [4] = assay: Antiviral efficacy in Vero cells infected with HSV-1 at concentration of 800 uM

**Q.** How did the Cells killed (Human alphaherpesvirus 1 [1]) turn out when `Cc1cn(C2CC3CCCN3O2)c(=O)[nH]c1=O` (configuration not stated) was run?
**A.** The Cells killed was -5%.

**Q.** And the Cells killed (Human alphaherpesvirus 1 [2])?
**A.** Its Cells killed is -10%.

**Q.** And the Cells killed (Human alphaherpesvirus 1 [3])?
**A.** The Cells killed was -12%.

**Q.** And the Cells killed (Human alphaherpesvirus 1 [4])?
**A.** Its Cells killed is -55%.

**Q.** Which results are given for `O=c1ccn(C2CC3CCCN3O2)c(=O)[nH]1` (configuration not stated)?
**A.** Cells killed (Human alphaherpesvirus 1 [1]): -41%; Cells killed (Human alphaherpesvirus 1 [2]): -55%; Cells killed (Human alphaherpesvirus 1 [3]): -70%; Cells killed (Human alphaherpesvirus 1 [4]): -83%

**Q.** Which results are given for `Nc1ccn(C2CC3CCCN3O2)c(=O)n1` (configuration not stated)?
**A.** Cells killed (Human alphaherpesvirus 1 [1]): -3%; Cells killed (Human alphaherpesvirus 1 [2]): -3%; Cells killed (Human alphaherpesvirus 1 [3]): -6%; Cells killed (Human alphaherpesvirus 1 [4]): -67%
